Earlier results in patent US10596038B2, “Corneal denervation for treatment of ocular pain” (Journey1, Inc., priority 2009, dated 2020).

Conditions: after 24 hours

detectability in the blood: undetectable
Compound: COc1cc(CNC(=O)CCCC/C=C/C(C)C)ccc1O [Capsaicin]
